Reference: article PMC8379256, “A xanthene derivative, DS20060511, attenuates glucose intolerance by inducing skeletal muscle-specific GLUT4 translocation in mice” (Communications Biology, 2021)
Where “and” joins values, the source holds several entries; their conditions need not be identical. Equal entries are not always repeated.

Legend:
[1] = system: isolated soleus and EDL muscles; assay: [3H]-2-DG uptake in isolated soleus and EDL muscles from WT and GLUT4KO mice; set-up: species or system mouse; settings: for 2DOG Trn / IC 2DOG / 2-DG uptake Raio: DS20060511 10μM, individual muscles; for 2DOG Trn / IC 2DOG: 2DG 1 mM, incubation time 10 min; for 2-DG uptake Raio: ratio to vehicle
Experimental: Fig. 3 The glucose-lowering effect of DS20060511 is totally dependent on GLUT4. a Blood glucose and plasma insulin levels during oral GTT in wild-type (WT, n = 5) and GLUT4 knockout (KO, n = 6) mice. Mice received oral administration of vehicle or DS20060511 (30 mg kg^−1), 15 min prior to the glucose administration (1.5 g kg^−1). Values shown are means ± SEM. *P < 0.05, **P < 0.01 vs. vehicle by the t-test. b DS20060511-stimulated [^3H]-2-DG uptake in the isolated soleus and EDL muscles excised from WT (n = 6) and KO (n = 6) mice. Values shown are means ± SEM. **P < 0.01 vs. vehicle by the t-test.
The soleus or EDL muscle was removed from anesthetized mice (isoflurane anesthesia) that had been denied access to food overnight, and incubated with oxygenated (95% O2/5% CO2) Krebs-Henseleit Bicarbonate (KHB) buffer (118.1 mM NaCl, 4.7 mM KCl, 1.1 mM KH2PO4, 1.2 mM MgSO4, 2.5 mM CaCl2, and 25 mM NaHCO3, pH7.4) in the presence of 11.1 mM glucose at 37 °C. The muscle specimens were then treated with the indicated concentrations of the compounds in KHB buffer containing 11.1 mM glucose and 8 mM mannitol for 10 min at 37 °C. Thereafter, the muscles were rinsed with KHB buffer containing 8 mM mannitol and the compounds for 5 min at 37 °C. Lastly, the muscles were treated with the compounds in KHB buffer containing 1 mM 2-DG (with 0.3 μCi mL^−1 [^3H]-2-DG) and 8 mM mannitol (with 0.03 μCi mL^−1 [^14C]-mannitol) for 10 min at 37 °C. After the muscle specimens were washed, they were lysed with 1 N NaOH and neutralized with 1 N HCl. The ^14C- and ^3H-specific activities were counted with a liquid scintillation counter. The specific uptake of 2-DG was calculated by subtracting the nonspecific uptake of mannitol from the total 2-DG uptake. To investigate the effects of muscle contraction, muscle contraction was induced by electrical stimulation with 5 Hz (1 ms pulse duration, 100 V) for 10 min (SEN-5201, Nihon Koden, Tokyo, Japan).

WT and eNOSKO mice [2] = assay: ITT in wild-type and eNOS-knockout mice; type: in vivo, mouse; settings: for Blood glucose: Insulin tolerance test, individual animals
Experimental: Fig. 7 DS20060511 treatment decreases blood glucose levels in both WT and eNOSKO mice during oral GTT and ITT. a, b Blood glucose levels during oral GTT in wild-type (WT, n = 5) and eNOS-knockout (KO, n = 5–6) mice. Mice received vehicle or DS20060511 (10 mg kg^−1) orally 15 min before the glucose administration (3.0 g kg^−1). c, d Blood glucose levels during ITT in WT (n = 4) and KO (n = 5) mice. […] Values shown are means ± SEM. *P < 0.05, **P < 0.01, ***P < 0.001 vs. vehicle by the t-test.
C57BL/6 and db/db mice were purchased from CLEA Japan, Tokyo, Japan. GLUT4- knockout mice were generated at RIKEN BioResource Center, Tsukuba, Japan, according to a previously described method. eNOS-knockout mice were kindly provided by Dr. Masato Tsutsui[41],[42]. The mice were group-housed under controlled illumination (12:12 h light-dark cycle) and temperature (23 ± 2 °C) conditions and given free access to normal chow and water, unless otherwise specified. The HFD-fed obese mice were prepared by feeding C57BL/6 mice a HFD for at least 8 weeks from 6 weeks of age. […] Male mice were used for all the experiments in this study. The animal care and experimental procedures used in the study were approved by The University of Tokyo Animal Care Committee (Approval number: 27-3), and the study was carried out in accordance with the Animal Experimentation Guidelines of Daiichi Sankyo Co., Ltd (Approved number: 20000411).
Mice received the indicated oral dose of DS20060511 or vehicle at the same time as the intraperitoneal injection of insulin (Humulin) at the indicated dose. Blood glucose levels were measured using Glutest Every in blood samples collected from the tail vein at the indicated timepoints.

WT and eNOSKO mice [3] = assay: Oral GTT in wild-type and eNOS-knockout mice; type: in vivo, mouse; settings: Glucose tolerance test, 30 mg/kg, individual animals

## COc1ccc2c(C)c(C(=O)O)ccc2c1C1C2=C(CC(C)(C)CC2=O)OC2=C1C(=O)CC(C)(C)C2 [DS20060511]
[1]; GLUT4KO mice
  2-DG uptake by isolated soleus and EDL muscles (in words): no such increase in muscle uptake was observed
[1]; GLUT4KO, isolated EDL
  2DOG Trn: 219 nmol/ml and 21.9 µM/min and 229 nmol/ml and 22.9 µM/min and 220 nmol/ml and 22.0 µM/min and 239 nmol/ml and 23.9 µM/min and 247 nmol/ml and 24.7 µM/min
  IC 2DOG: 136 nmol/g and 155 nmol/g and 142 nmol/g and 149 nmol/g and 143 nmol/g and 156 nmol/g
  2-DG uptake Raio: 1.02 and 1.07 and 1.03 and 1.11 and 1.15
[1]; GLUT4KO, isolated Soleus
  2DOG Trn: 272 nmol/ml and 27.2 µM/min and 411 nmol/ml and 41.1 µM/min and 553 nmol/ml and 55.3 µM/min and 323 nmol/ml and 32.3 µM/min and 280 nmol/ml and 28.0 µM/min and 475 nmol/ml and 47.5 µM/min
  IC 2DOG: 151 nmol/g and 223 nmol/g and 272 nmol/g and 155 nmol/g and 138 nmol/g and 244 nmol/g
  2-DG uptake Raio: 0.86 and 1.30 and 1.75 and 1.02 and 0.89 and 1.50
[1]; WT mice
  2-DG uptake by isolated soleus and EDL muscles (in words): significantly increased the 2-DG uptake
[1]; Wildtype, isolated EDL
  2DOG Trn: 620 nmol/ml and 62.0 µM/min and 476 nmol/ml and 47.6 µM/min and 591 nmol/ml and 59.1 µM/min and 474 nmol/ml and 47.4 µM/min and 359 nmol/ml and 35.9 µM/min and 351 nmol/ml and 35.1 µM/min
  IC 2DOG: 373 nmol/g and 286 nmol/g and 340 nmol/g and 291 nmol/g and 235 nmol/g and 229 nmol/g
  2-DG uptake Raio: 2.47 and 1.90 and 2.36 and 2.12 and 1.61 and 1.57
[1]; Wildtype, isolated Soleus
  2DOG Trn: 632 nmol/ml and 63.2 µM/min and 599 nmol/ml and 59.9 µM/min and 719 nmol/ml and 71.9 µM/min and 638 nmol/ml and 63.8 µM/min and 552 nmol/ml and 55.2 µM/min and 582 nmol/ml and 58.2 µM/min
  IC 2DOG: 343 nmol/g and 302 nmol/g and 363 nmol/g and 327 nmol/g and 293 nmol/g and 321 nmol/g
  2-DG uptake Raio: 1.76 and 1.67 and 2.01 and 2.02 and 1.75 and 1.84
WT and eNOSKO mice [2]; Wildtype, 10 mg/kg, 0 min
  Blood glucose: 176 mg/dL and 163 mg/dL and 183 mg/dL and 182 mg/dL
WT and eNOSKO mice [2]; Wildtype, 10 mg/kg, 20 min
  Blood glucose: 96 mg/dL and 77 mg/dL and 89 mg/dL and 88 mg/dL
WT and eNOSKO mice [2]; Wildtype, 10 mg/kg, 40 min
  Blood glucose: 60 mg/dL and 67 mg/dL and 74 mg/dL
WT and eNOSKO mice [2]; Wildtype, 10 mg/kg, 60 min
  Blood glucose: 58 mg/dL and 71 mg/dL and 70 mg/dL and 52 mg/dL
WT and eNOSKO mice [2]; Wildtype, 10 mg/kg, 80 min
  Blood glucose: 57 mg/dL and 67 mg/dL and 68 mg/dL and 53 mg/dL
WT and eNOSKO mice [2]; Wildtype, 10 mg/kg, 100 min
  Blood glucose: 63 mg/dL and 84 mg/dL and 67 mg/dL and 58 mg/dL
WT and eNOSKO mice [2]; Wildtype, 10 mg/kg, 120 min
  Blood glucose: 57 mg/dL and 74 mg/dL and 70 mg/dL
WT and eNOSKO mice [2]; eNOSKO, 30 mg/kg, 0 min
  Blood glucose: 191 mg/dL and 175 mg/dL and 168 mg/dL and 169 mg/dL
WT and eNOSKO mice [2]; eNOSKO, 30 mg/kg, 20 min
  Blood glucose: 95 mg/dL and 89 mg/dL and 100 mg/dL and 120 mg/dL and 97 mg/dL
WT and eNOSKO mice [2]; eNOSKO, 30 mg/kg, 40 min
  Blood glucose: 69 mg/dL and 75 mg/dL and 81 mg/dL and 76 mg/dL
WT and eNOSKO mice [2]; eNOSKO, 30 mg/kg, 60 min
  Blood glucose: 61 mg/dL and 64 mg/dL and 40 mg/dL and 41 mg/dL and 51 mg/dL
WT and eNOSKO mice [2]; eNOSKO, 30 mg/kg, 80 min
  Blood glucose: 66 mg/dL and 55 mg/dL and 39 mg/dL and 48 mg/dL
WT and eNOSKO mice [2]; eNOSKO, 30 mg/kg, 100 min
  Blood glucose: 72 mg/dL and 53 mg/dL and 35 mg/dL and 34 mg/dL and 39 mg/dL
WT and eNOSKO mice [2]; eNOSKO, 30 mg/kg, 120 min
  Blood glucose: 76 mg/dL and 49 mg/dL and 55 mg/dL and 37 mg/dL and 39 mg/dL
WT and eNOSKO mice [2]; WT and eNOSKO mice, 30 mg kg−1 po with 0.5 U kg−1 insulin ip
  blood glucose levels during ITT (in words): reduced even further
WT and eNOSKO mice [3]; 0 min
  Blood glucose: 77 mg/dL
WT and eNOSKO mice [3]; -15 min
  Blood glucose: 65 mg/dL
